Experimental data: PubChem BioAssay AID488950 (Broad Institute, 2010)
Several values for one entry are separate records, joined by “and”; a condition that tells them apart may be missing. Identical values can stand only once. Results filed as inconclusive are left out. Activity calls are given as the source filed them.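 How the source made its calls: active means fitted half-maximal dose for growth inhibition no higher than ten times the top tested dose; inconclusive means flat curve with 30 to 70% inhibition, or poor fit; inactive means the rest.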

System: not listed separately
Assay: growth inhibition of resistant C. albicans, dose response, CaCi-8 strain, fluconazole, dry powder, set 4 (AID 488950)
Settings: C. albicans CaCi-8 + fluconazole, Alamar Blue growth, 48 h; at 26 µM (top of the series)
In the case of `O=S(=O)(c1ccc(Cl)cc1)N1CCN(c2ccnc3cc(Cl)ccc23)CC1`, the activity change, negative = inhibition is reported as -2.18% (inactive). In the case of `Clc1ccc2c(N3CCNCC3)ccnc2c1`, the activity change, negative = inhibition is reported as 7.46% (inactive). In the case of `O=C(c1ccc(Cl)cc1)N1CCNCC1`, the activity change, negative = inhibition is reported as 4.63% (inactive). For `O=C(c1ccc(Cl)cc1)N1CCN(c2ccncc2)CC1`, the activity change, negative = inhibition was -2.65% (inactive). In the case of `COc1cccnc1N1CCN(C(=O)c2ccc(Cl)cc2)CC1`, the activity change, negative = inhibition is reported as -25% (inactive). With `O=C(c1ccc(Cl)cc1)N1CCN(c2cc(C(F)(F)F)nc3ccccc23)CC1` the activity change, negative = inhibition was -54.5% (inactive). For `CC(C)C(=O)N1CCN(c2ccnc3cc(Cl)ccc23)CC1`, the activity change, negative = inhibition was -25.6% (inactive). In the case of `COc1cccc2c(N3CCN(C(=O)c4ccc(Cl)cc4)CC3)cc(C)nc12`, the activity change, negative = inhibition is reported as -22.9% (inactive). In the case of `Cc1cc(N2CCN(C(=O)c3ccc(Cl)cc3)CC2)c2ccccc2n1`, the activity change, negative = inhibition is reported as 6.54% (inactive).

System: C. albicans CaCi-8 + fluconazole, Alamar Blue growth, 48 h
Assay: as above
Settings: not given
With `O=C(c1ccc(Cl)cc1)N1CCN(c2ccccn2)CC1` the AC50 was 9.14 µM and 13.8 µM and 19.9 µM. With `O=C(c1ccc(Cl)cc1)N1CCN(c2ccnc3cc(Cl)ccc23)CC1` the AC50 was 0.179 µM and 0.6 µM.
